Test results as given in paper PMC6522510 (Nature Communications, 2019).
Read-outs that look alike come from different tables or passages of the source. Peptide text beside a SMILES is read from it.

Experiments:
Parameters in all cases: species or system AML cell lines (8); Primary HTS, single concentration about 10 uM, Cell Titer Glo viability; log10 luminescence, per cent inhibition relative to cycloheximide control
Conditions in all cases: 72 h, relative to cycloheximide control, log10 luminescence, inhibitor
[1] = system: CHRF288-11
[2] = system: CMK
[3] = system: CMS
[4] = system: M07e
[5] = system: ML-2
[6] = system: MOLM-13
[7] = system: MV4-11
[8] = system: U937

Compound	CHRF288-11 %inh [1] [%]	CMK %inh [2] [%]	CMS %inh [3] [%]	M07e %inh [4] [%]	ML-2 %inh [5] [%]	MOLM-13 %inh [6] [%]	MV4-11 %inh [7] [%]	U937 %inh [8] [%]	CHRF288-11 %inh ([1]; CHRF288-11 %inh, 10 µM) [%]	CMK %inh ([2]; CMK %inh, 10 µM) [%]	CMS %inh ([3]; CMS %inh, 10 µM) [%]	M07e %inh ([4]; M07e %inh, 10 µM) [%]	ML-2 %inh ([5]; ML-2 %inh, 10 µM) [%]	MOLM-13 %inh ([6]; MOLM-13 %inh, 10 µM) [%]	MV4-11 %inh ([7]; MV4-11 %inh, 10 µM) [%]	U937 %inh ([8]; U937 %inh, 10 µM) [%]
Cc1[nH]c(/C=C2\C(=O)Nc3ccccc32)c(C)c1CCC(=O)O [SJ000556685-2, ORANTINIB | SU-6668 | TSU-68 | TSU-68 (SU6668, ORANTINIB)]	14.71	1.601	12.46	0.796	2.987	33.6	14.82	4.629	–	–	–	–	–	–	–	–
CN(C(=O)c1cc2ccccc2cc1C(=O)C(c1cccc2ccccc12)P(=O)(O)O)C1CCN(C(=O)c2ccccc2)CC1 (stereo not drawn) [SJ000556691-1, CATHEPSIN G INHIBITOR I]	9.27	10.35	2.107	0.0007022	0.3338	0.5105	1.483	-1.516	–	–	–	–	–	–	–	–
CO[C@@H]1[C@H](OC(=O)/C=C/C=C/C=C/C=C/C(=O)O)CC[C@]2(CO2)[C@H]1[C@@]1(C)O[C@@H]1CC=C(C)C [SJ000556696-1, FUMAGILLIN]	–	–	–	–	–	–	–	–	12.42	-0.5821	10.64	2.083	2.951	6.124	13.12	19.23
CO[C@@H]1[C@H](OC(=O)/C=C/C=C/C=C/C=C/C(=O)O)CC[C@]2(CO2)[C@H]1[C@@]1(C)O[C@@H]1CC=C(C)C [SJ000556696-2, FUMAGILLIN]	–	–	–	–	–	–	–	–	24.31	-0.114	7.757	1.679	3.251	10.06	9.134	20.26
CC(C)C[C@H](N)C(=O)N[C@H](C(=O)N[C@H](C(=O)N[C@@H](Cc1ccc(O)cc1)C(=O)N1CCC[C@H]1C(=O)N[C@@H](Cc1c[nH]c2ccccc12)C(=O)N[C@H](C(=O)O)[C@@H](C)O)C(C)C)C(C)C [SJ000556698-1, SPINORPHIN] (H-LVVYPWT-OH)	-1.007	0.1545	4.762	-3.453	-1.792	-0.8143	-0.248	0.1872	–	–	–	–	–	–	–	–
COc1ccc(S(=O)(=O)N2CCN(C(=O)c3ccc(-c4ccccc4)cc3)CC2C(=O)NO)cc1 (stereo not drawn) [SJ000556700-1, N-HYDROXY-1-(4-METHOXYPHENYL)SULFONYL-4-(4-BIPHENYLCARBONYL)PIPERAZINE-2-CARBOXAMIDE]	142.9	129.1	90.96	105.4	62.36	33.07	72.89	72.9	–	–	–	–	–	–	–	–
C[C@@H]1CN(c2c(F)c(N)c3c(=O)c(C(=O)O)cn(C4CC4)c3c2F)C[C@H](C)N1 [SJ000556731-1, SPARFLOXACIN]	–	–	–	–	–	–	–	–	-1.018	-4.344	-1.257	-0.05975	2.718	-3.504	7.588	1.66
C[C@@H]1CN(c2c(F)c(N)c3c(=O)c(C(=O)O)cn(C4CC4)c3c2F)C[C@H](C)N1 [SJ000556731-2, SPARFLOXACIN]	–	–	–	–	–	–	–	–	0.9037	6.161	-0.1151	-2.464	2.462	6.829	1.115	3.77
C=CC[N+]1([C@H]2C[C@H]3[C@@H]4CC[C@H]5C[C@H](O)[C@@H](N6CCOCC6)C[C@]5(C)[C@H]4CC[C@]3(C)[C@H]2OC(C)=O)CCCC1 [SJ000556732-1, ROCURONIUM BROMIDE]	-4.633	-9.307	-2.237	-1.372	-0.2233	-4.64	0.4653	-2.855	–	–	–	–	–	–	–	–
O=C(O[C@H]1C[C@H]2CC[C@@H](C1)[N+]21CCCC1)C(O)(c1ccccc1)c1ccccc1 [SJ000556733-1, TROSPIUM CHLORIDE]	–	–	–	–	–	–	–	–	1.082	-8.303	1.711	0.3246	2.085	-2.987	-0.2163	-2.05
O=C(O[C@H]1C[C@H]2CC[C@@H](C1)[N+]21CCCC1)C(O)(c1ccccc1)c1ccccc1 [SJ000556733-2, TROSPIUM CHLORIDE]	–	–	–	–	–	–	–	–	0.2164	-0.8375	-2.193	4.258	4.125	0.236	1.274	-0.2464
Cc1cn([C@@H]2C[C@@H](O)[C@H](CO)O2)c(=O)[nH]c1=O [SJ000556735-1, TELBIVUDINE]	5.146	-3.078	-2.406	0.6931	2.339	-1.046	3.878	2.103	–	–	–	–	–	–	–	–
CO[C@H]1/C=C/O[C@@]2(C)Oc3c(C)c(O)c4c(O)c(c(/C=N/N5CCN(C6CCCC6)CC5)c(O)c4c3C2=O)NC(=O)/C(C)=C\C=C\[C@H](C)[C@H](O)[C@@H](C)[C@@H](O)[C@@H](C)[C@H](OC(C)=O)[C@@H]1C [SJ000556738-1, RIFAPENTINE]	–	–	–	–	–	–	–	–	-0.1419	-0.8493	9.958	1.814	6.792	5.251	4.97	33.42
CO[C@H]1/C=C/O[C@@]2(C)Oc3c(C)c(O)c4c(O)c(c(/C=N/N5CCN(C6CCCC6)CC5)c(O)c4c3C2=O)NC(=O)/C(C)=C\C=C\[C@H](C)[C@H](O)[C@@H](C)[C@@H](O)[C@@H](C)[C@H](OC(C)=O)[C@@H]1C [SJ000556738-2, RIFAPENTINE]	–	–	–	–	–	–	–	–	-2.807	-1.103	24.93	2.598	7.469	7.481	5.68	26.01
C[C@@H]1C[C@H]2[C@@H]3C[C@H](F)C4=CC(=O)C=C[C@]4(C)[C@@]3(F)[C@@H](O)C[C@]2(C)[C@@]1(OC(=O)c1ccco1)C(=O)SCF [SJ000556747-1, FLUTICASONE FUROATE]	5.244	4.028	42.17	0.03036	5.949	2.731	10.07	15.51	–	–	–	–	–	–	–	–
Cc1c(F)c(N2CCNC(C)C2)cc2c1c(=O)c(C(=O)O)cn2C1CC1 (stereo not drawn) [SJ000556748-1, GREPAFLOXACIN]	7.335	-2.149	-1.062	-0.4769	-2.485	27.08	-0.8156	0.03292	–	–	–	–	–	–	–	–
Nc1nc(=O)n([C@@H]2CS[C@H](CO)O2)cc1F [SJ000556750-1, EMTRICITABINE]	2.371	2.775	-3.992	-0.1929	2.01	20.59	-2.268	-2.394	–	–	–	–	–	–	–	–
CCOCCn1c(N2CCCN(C)CC2)nc2ccccc21 [SJ000556751-1, EMEDASTINE DIFUMARATE]	-0.4103	-0.9686	-0.1534	0.9271	1.809	8.131	-1.235	0.3803	–	–	–	–	–	–	–	–
